Several values for one entry are separate records, joined by “and”; a condition that tells them apart may be missing. Equal values may be shown once.
Experiments:
[1] = tested on: heart of neck-ligated Carausius morosus; design: method as in Marco et al., 2018; details: ref Marco et al., 2018, cited from earlier work
[2] = tested on: ligated 6th instar Indian stick insects (Carausius morosus); test: Carbohydrate-mobilization (hypertrehalosemic) in vivo assay; details: for % Activity relative to the effect of Carmo-HrTH-II (metabolic): 20 pmol peptide injected, carbohydrate increase relative to Carmo-HrTH-II = 100, NS = no significant increase; for Hemolymph carbohydrates, 90 min: 90 min after injection of 20 pmol peptide in 10 μl; for Hemolymph carbohydrates, 90 min / Hemolymph carbohydrates, Difference: neck-ligated 6th instar nymphs; for Hemolymph carbohydrates, Difference: 90 min minus 0 min, 20 pmol peptide in 10 μl injected; for Hemolymph carbohydrates, 0 min: before injection (0 min), 2 h after neck ligation, group later given 20 pmol peptide in 10 μl, 6th instar nymphs
Protocol: Sixth instar nymphs that were 1–2 days before molting were neck-ligated and used in the hypertrehalosemic in vivo assay as described in detail by [Gäde and Lohr (1982)]. Stock peptide solutions (5 pmol μl^–1) were diluted with distilled water to the desired concentration in 10 μl, which was injected into the stick insect nymphs.
In the first series of experiments, various doses of synthetic Carmo-HrTH-II and corpora cardiaca (CC) extract of C. morosus were used to determine the maximal hypertrehalosemic response of C. morosus. Hemolymph samples were taken from 17 to 18 days old 6th instar nymphs 2 h after they were neck-ligated and then 90 min after either CC extract or synthetic Carmo-HrTH-II was injected. Ligated nymphs injected with distilled water served as controls for handling stress. As depicted in Figures 1A,B, various doses of both Carmo-HrTH-II and CC extract increased the level of carbohydrates in the hemolymph in a dose-dependent manner. A dose of 0.04 pmol of synthetic Carmo-HrTH-II and the equivalent of 0.005 pairs of corpora cardiaca (pCC) were sufficient to give significant increases in hemolymph carbohydrates (p < 0.05). […] Doses of 0.1–0.5 pCC gave an average increase of 5.6 ± 0.6 mg carbohydrates ml^–1 hemolymph (Figure 1B); again, statistical analyses reveal no significant difference between the effect of these doses (p > 0.05).
Based on these pilot experiments, we selected a dose of 20 pmol for testing the analogs of Carmo-HrTH-II since such a dose of our lead compound, Carmo-HrTH-II had achieved maximal hypertrehalosemic activity.

[3] = tested on: heart of neck-ligated Carausius morosus; test: Semi-exposed heart bioassay (heart beat rate); assay type: in vivo; details: for % Activity relative to the effect of Carmo-HrTH-II (myotropic) / Heart rate, Difference: 20 pmol peptide in 150 μl; for % Activity relative to the effect of Carmo-HrTH-II (myotropic): heart rate increase relative to Carmo-HrTH-II = 100, NS = no significant increase; for Heart rate, Post-application: after application of 20 pmol peptide in 150 μl saline, average of first four counts; for Heart rate, Post-application / Heart rate, Pre-application: neck-ligated stick insects; for Heart rate, Pre-application: in saline before application, semi-exposed heart; for Heart rate, Difference: post- minus pre-application
Protocol: The semi-exposed heart bioassay was carried out as described ([Marco et al., 2018]) with adult stick insects between 1 and 2 months old that were ligated at the neck. Briefly, a ventral incision of the abdomen exposed the ventral cavity with the internal organs; a few drops of stick insect saline (pH 6.6; 15 mM NaCl, 18 mM KCl, 7.5 mM CaCl2, 2 mM HEPES, 50 mM MgCl2, and 184 mM glucose according to [Ejaz and Lange, 2008]) were added to the exposed part. The semi-isolated heart preparation was viewed with a dissecting microscope (12-fold magnification), and the number of observed heart beats (contractions of the heart muscle) was counted during a fixed period using a manual tally counter and a timer. Once the heart had stabilized, saline was replaced with the test solution. For this the peptide stock solution of 5 pmol μl^–1 was diluted with stick insect saline to the desired concentration and a final volume of 150 μl was used for each test.
Heart rates under normal saline served as controls. The change in heart rate after the application of the test solution was calculated as an average of the first four counts and was compared to the average heart rates counted in saline before the application of the test solution. This comparison of change in heart rates was done for all the peptides tested.

Blaberus discoidalis = tested on: Blaberus discoidalis; design: method as in Hayes and Keeley, 1990; details: in vivo assay, cockroach B. discoidalis; ref Hayes and Keeley, 1990; cited from earlier work
Manduca sexta = tested on: Manduca sexta; design: method as in Fox and Reynolds, 1991; Ziegler et al., 1991; details: in vivo assay, ref Fox and Reynolds, 1991, Ziegler et al.; cited from earlier work
Periplaneta americana = tested on: Periplaneta americana; design: method as in Gäde, 1990; details: in vivo assay, P. americana; ref Gäde, 1990; cited from earlier work
Locusta migratoria = tested on: Locusta migratoria; design: method as in Gäde, 1990; details: in vivo assay, L. migratoria; ref Gäde, 1990; cited from earlier work

Compound: NCC(O)c1ccc(O)cc1 (stereo not drawn) [octopamine]
- Effect on contraction of the heart ([1]; C. morosus heart, dose-dependent): inhibits the contraction of the heart

Compound: pGlu-Leu-Thr-Phe-Thr-Pro-Asn-Trp-Gly-Thr OH [Carmo-HrTH-II: free C-terminus]
- % Activity relative to the effect of Carmo-HrTH-II (metabolic) [2]: 30%
- Hemolymph carbohydrates, 90 min [2]: 10.4 ± 2.2 mg/mL
- Hemolymph carbohydrates, Difference [2]: 1.6 ± 1.6 mg/mL
- Hemolymph carbohydrates, 0 min [2]: 8.8 ± 2.1 mg/mL
- % Activity relative to the effect of Carmo-HrTH-II (myotropic) [3]: 58%
- Heart rate, Post-application [3]: 47 ± 3 beats min^−1
- Heart rate, Pre-application [3]: 40 ± 5 beats min^−1
- Heart rate, Difference [3]: 7 ± 3 beats min^−1

Compound: pGlu-Leu-Thr-Phe-Thr-Pro-Asn-Trp-Ala-Thr amide [Ala^9-Carmo-HrTH-II]
- % Activity relative to the effect of Carmo-HrTH-II (metabolic) [2]: 28%
- Hemolymph carbohydrates, 90 min [2]: 11.0 ± 1.5 mg/mL
- Hemolymph carbohydrates, Difference [2]: 1.5 ± 0.9 mg/mL
- Hemolymph carbohydrates, 0 min [2]: 9.5 ± 1.9 mg/mL
- Heart rate, Post-application [3]: 38 ± 2 beats min^−1
- Heart rate, Pre-application [3]: 39 ± 2 beats min^−1
- Heart rate, Difference [3]: −1 ± 1 beats min^−1

Compound: pGlu-Leu-Thr-Phe-Ala-Pro-Asn-Trp-Gly-Thr amide [Ala^5-Carmo-HrTH-II]
- Hemolymph carbohydrates, 90 min [2]: 10.1 ± 1.3 mg/mL
- Hemolymph carbohydrates, Difference [2]: -0.1 ± 0.1 mg/mL
- Hemolymph carbohydrates, 0 min [2]: 10.2 ± 1.2 mg/mL
- Heart rate, Post-application [3]: 40 ± 7 beats min^−1
- Heart rate, Pre-application [3]: 39 ± 7 beats min^−1
- Heart rate, Difference [3]: 1 ± 2 beats min^−1

Compound: [N-Ac]Ala-Leu-Thr-Phe-Thr-Pro-Asn-Trp-Gly-Thr amide [Carmo-HrTH-II: [N-Ac]Ala^1]
- % Activity relative to the effect of Carmo-HrTH-II (metabolic) [2]: 28%
- Hemolymph carbohydrates, 90 min [2]: 10.6 ± 2.0 mg/mL
- Hemolymph carbohydrates, Difference [2]: 1.5 ± 1.1 mg/mL
- Hemolymph carbohydrates, 0 min [2]: 9.0 ± 1.3 mg/mL
- Heart rate, Post-application [3]: 39 ± 6 beats min^−1
- Heart rate, Pre-application [3]: 39 ± 6 beats min^−1
- Heart rate, Difference [3]: 0 ± 0 beats min^−1

Compound: pGlu-Leu-Thr-Phe-Thr-Pro-Asn-Trp-Gly-Thr amide [Carmo-HrTH-II, reference compound]
- % Activity relative to the effect of Carmo-HrTH-II (metabolic) [2]: 100%
- Hemolymph carbohydrates, 90 min [2]: 14.9 ± 1.9 mg/mL
- Hemolymph carbohydrates, Difference [2]: 5.4 ± 1.1 mg/mL
- Hemolymph carbohydrates, 0 min [2]: 9.4 ± 1.5 mg/mL
- Average increase of hemolymph carbohydrates ([2]; doses of 7.5–60 pmol (plateau, no significant difference between doses), 90 min): 5.2 ± 0.4 mg ml^–1
- Dose sufficient to give significant increases in hemolymph carbohydrates ([2]; synthetic peptide injected, 17-18 days old ligated 6th instar nymphs, 90 min, p < 0.05): 0.04 pmol
- % Activity relative to the effect of Carmo-HrTH-II (myotropic) [3]: 100%
- Heart rate, Post-application [3]: 53 ± 5 beats min^−1
- Heart rate, Pre-application [3]: 41 beats min^−1 and 41 ± 4 beats min^−1
- Heart rate, Difference [3]: 12 ± 5 beats min^−1
- Doses that increased the heart beat rate significantly and maximally ([1]; ligated stick insects, synthetic peptide): above 6.67 × 10^–8 M
- Fold less active than the endogenous Bladi-HrTH (Blaberus discoidalis): more than 300 fold
- Activity relative to the endogenous nonapeptide Manse-AKH (Manduca sexta): as, or slightly more active than the endogenous nonapeptide Manse-AKH
- Activity relative to the endogenous octapeptides Peram-CAH-I and -II (Periplaneta americana): more or less as active
- Activity relative to the endogenous decapeptide Locmi-AKH-I (Locusta migratoria): only slightly less active

Compound: pGlu-Leu-Thr-Phe-Thr-Pro-Ala-Trp-Gly-Thr amide [Ala^7-Carmo-HrTH-II]
- % Activity relative to the effect of Carmo-HrTH-II (metabolic) [2]: 13%
- Hemolymph carbohydrates, 90 min [2]: 12.0 ± 2.2 mg/mL
- Hemolymph carbohydrates, Difference [2]: 0.7 ± 0.6 mg/mL
- Hemolymph carbohydrates, 0 min [2]: 11.3 ± 2.0 mg/mL
- Heart rate, Post-application [3]: 39 ± 4 beats min^−1
- Heart rate, Pre-application [3]: 39 ± 4 beats min^−1
- Heart rate, Difference [3]: 0 ± 1 beats min^−1
